Here are results for eight molecules from patent US20060019934A1, “Anti-HIV-1 activity of betulinol derivatives” (priority 2004, published 2006).

Like-named read-outs stand apart in the source and are kept apart here.

One series deals with HIV-1 IIIB isolate. The series can be described thus: HIV-1 p24 antigen capture ELISA, acutely infected 174XCEM cells. Particulars: for anti-HIV-1 activity compared with other betulinol derivatives: 1 μg/ml, p24 OD, FIG. 1. The format is cell-based. The source says:
The assay methods described herein are known in the art, and are described in detail, for example, in Crombie et al., J. Exp. Med. 187:25-35 (1998), which is hereby incorporated by reference in its entirety.
Cultures were maintained in culture medium (RPMI-1640+10% fetal bovine serum (“FBS”)) for 4 days, the culture supernatants were then collected, lysed with Triton®-X 100 surfactant, and HIV-1 gag (p24) antigen activity assessed by a standard technique, the Antigen Capture ELISA (enzyme-linked immunosorbent assay) (Roche-NEN).
Data are presented in optical density (“OD”) units, which are linear with ng/ml of p24 Ag from 0.15 to 1.5 OD, and can be converted to pg/ml of HIV-1 antigen using a standard curve.

In the next series the test system is 174XCEM cells. The series can be described thus: Cell viability by trypan blue dye exclusion. The note with it: for effect on total cell number or cell viability: trypan blue dye exclusion at four days and seven days. On the procedure: Human T-B hybridoma cell line 174XCEM was exposed to a low multiplicity of infection (“MOI”) (MOI=1.0) of stock HIV-1 IIIB isolate for 2 hours at 37° C., washed ×3 with phosphate buffered saline (“PBS”), then plated at 250,000 cells/well in the presence of various agents, shown in Table 2. Dimethyl sulfoxide (“DMSO”) buffer was used as a “no virus” control. A commercially available synthetic peptide, thrombospondin peptide (“TSP”), known as having HIV-1 inhibitory activity, was used as an “inhibitory activity” control. Two HIV isolates were used, a patient isolate (“child HIV”), and the standard CXCR4 co-receptor utilizing isolate IIIB.
The cell samples were assessed by trypan blue dye exclusion at four days and seven days.

The conditions of series [1]: Hashimoto et al. 1997; cited from earlier work.
For series [2], the system named is carcinoma cell line CO-115 of the large intestine. The note with it: CO-115 cells; cited from earlier work.
In another series the test system is another HIV-1 isolate. In words: Effect on 174XCEM cells chronically infected with another HIV-1 isolate. The series is classed as cell-based. On the procedure: Agents were also evaluated for an effect on 174XCEM cells chronically infected with another HIV-1 isolate.
Where [3] appears, read: varying doses up to 2 μg/ml, FIG. 3-5.
Setting [4] is: 174XCEM cells, HIV-1 IIIB, agents 1 μg/ml, p24 at 4 days, FIG. 2.
Setting [5] is: chronically infected 174XCEM cells, single dose 1 μg/ml.

As for `C=C(C)[C@@H]1CC[C@]2(COC(C)=O)CC[C@]3(C)[C@H](CC[C@@H]4[C@@]5(C)CC[C@H](O)C(C)(C)[C@@H]5CC[C@]43C)[C@@H]12` [28-acetoxy betulin], in the series on HIV-1 IIIB isolate, the “anti-HIV-1 activity compared with other betulinol derivatives” value is given as “superior”. The “dose-related anti-HIV effect” value in the series with HIV-1 IIIB isolate (setting [3]) is “comparable anti-HIV-1 activity”. In addition, the “effect on total cell number or cell viability” value in the series with 174XCEM cells is reported as “no effect”.
Turning to `C=C(C)[C@@H]1CC[C@]2(CO)CC[C@]3(C)[C@H](CC[C@@H]4[C@@]5(C)CC[C@H](OC(C)=O)C(C)(C)[C@@H]5CC[C@]43C)[C@@H]12` [3-acetoxy betulin], the “anti-HIV-1 activity compared with other betulinol derivatives” value in the series with HIV-1 IIIB isolate was “superior”. For the same molecule, the “effect on total cell number or cell viability” value in the series with 174XCEM cells is “no effect”.
Consider `C=C(C)[C@@H]1CC[C@]2(C(=O)O)CC[C@]3(C)[C@H](CC[C@@H]4[C@@]5(C)CCC(=O)C(C)(C)[C@@H]5CC[C@]43C)[C@@H]12` [betulonic acid], for which, in series [1], the “cytotoxicity, interfering with the proliferation of cells” value is given as “cytotoxic”.
For `C=C(C)[C@@H]1CC[C@]2(C(=O)O)CC[C@]3(C)[C@H](CC[C@@H]4[C@@]5(C)CC[C@H](O)C(C)(C)[C@@H]5CC[C@]43C)[C@@H]12` [betulinic acid], the “LD 50” value in series [2] was 0.375 mg/mL.
As to `C=C(C)C1CCC2(C=O)CC[C@]3(C)[C@H](CC[C@@H]4[C@@]5(C)CCC(=O)C(C)(C)[C@@H]5CC[C@]43C)C12` (stereo partly shown) [betulone aldehyde], the “inhibition (anti-HIV-1 effect)” value in the series with HIV-1 IIIB isolate (setting [4]) is 37%. Besides, the “dose-related anti-HIV effect” value with HIV-1 IIIB isolate (setting [3]) is listed as “Progressive increases in anti-HIV effect”. In addition, in the series on another HIV-1 isolate (setting [5]), the “inhibition in chronically infected cells” value is recorded as “minimal effect”.
The corresponding values for `C=C(C)C1CCC2(CO)CC[C@]3(C)[C@H](CC[C@@H]4[C@@]5(C)CCC(O)C(C)(C)[C@@H]5CC[C@]43C)C12` (stereo partly drawn) [betulinol, lup-20(29)-ene-3β, 28-diol] are “no effect”, “increasing anti-HIV effect” and “minimal effect”.
betulin dimethyl ether: in the series on HIV-1 IIIB isolate, the “anti-HIV-1 activity compared with other betulinol derivatives” value is reported as “superior”. In addition, in the series on 174XCEM cells, the “effect on total cell number or cell viability” value is “no effect”.
For `C=C(C)[C@@H]1CC[C@]2(COC(C)=O)CC[C@]3(C)[C@H](CC[C@@H]4[C@@]5(C)CC[C@H](OC(C)=O)C(C)(C)[C@@H]5CC[C@]43C)[C@@H]12` [betulin diacetate], in the series with HIV-1 IIIB isolate, the “dose-related anti-HIV effect” value was “Progressive increases in anti-HIV effect” and the “inhibition (anti-HIV-1 effect)” value was 57%. In addition, in the series with 174XCEM cells (doses of 0.5, 1.5, and 2 μg/ml), the cell toxicity result was “without cell toxicity”. Also, the “inhibition in chronically infected cells” value in the series with another HIV-1 isolate worked out at 20%.
